In US9597314B2, “Beta-lactamylalkanoic acids for treating premenstrual disorders” (AZEVAN PHARMACEUTICALS, INC., priority 2005, dated 2017):

Columns and labels:
V1a = V1a (Homo sapiens, UniProt P37288); assay: Human vasopression V1a receptor binding assay; set-up: host or cells: CHO cells (hV1a cell line), whole adherent cells
Summary of the method: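 Whole CHO cells stably expressing human V1a receptor competed 1 nM 3H-AVP against 10-fold serial compound dilutions (DMSO) in pH 7.0 Hepes/BSA/DMEM buffer, 45 min at 37° C.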

vasopressin V1a receptor = target: T1, vasopressin V1a receptor (Homo sapiens, UniProt P37288); assay: Inhibition of phosphatidylinositol turnover; format: cell-based; conditions: hV1a cells
T1 construct: host or cells: CHO cells (hV1a cell line), whole adherent cells
T1 sequence (P37288 whole entry): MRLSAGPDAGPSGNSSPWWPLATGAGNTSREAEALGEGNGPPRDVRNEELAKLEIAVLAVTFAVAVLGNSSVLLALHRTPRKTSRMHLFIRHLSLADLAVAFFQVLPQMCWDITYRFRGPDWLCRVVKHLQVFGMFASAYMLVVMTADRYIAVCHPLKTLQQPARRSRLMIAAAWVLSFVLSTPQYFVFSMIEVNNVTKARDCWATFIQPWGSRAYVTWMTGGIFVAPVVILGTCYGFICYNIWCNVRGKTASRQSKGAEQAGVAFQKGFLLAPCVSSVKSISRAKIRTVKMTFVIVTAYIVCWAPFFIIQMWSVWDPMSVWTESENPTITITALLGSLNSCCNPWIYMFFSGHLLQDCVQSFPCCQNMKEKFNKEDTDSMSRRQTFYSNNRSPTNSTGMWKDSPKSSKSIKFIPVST
Source text: Inhibition of phosphatidylinositol turnover. The physiological effects of vasopressin are mediated through specific G-protein coupled receptors. The vasopressin V1a receptor is coupled to the Gq/G11 family of G proteins and mediates phosphatidylinositol turnover. The agonist or antagonist character of the compounds of the invention may be determined by their ability to inhibit vasopressin-mediated turnover of phosphatidylinositol by the procedure described in the following paragraphs.
Cell culture and labeling of cells. Three days prior to the assay, near-confluent cultures of hV1a cells were dissociated and seeded in 6-well tissue culture plates, about 100 wells being seeded from each 75 cm^2 flask (equivalent to 12:1 split ratio).
Incubations. All assays were in triplicate except for basal and 10 nM AVP (both n=6). AVP ((arginine vasopressin), Peninsula Labs, Belmont, Calif., USA (#8103)) was dissolved in 0.1N acetic acid. Test agents were dissolved in DMSO and diluted in DMSO to 200 times the final test concentration. […] The order of incubations was randomized. Incubations were initiated by removing the prelabeling medium, washing the monolayer once with 1 mL of 0.9% NaCl, and transferring the contents of the assay tubes to corresponding wells. The plates were incubated for 1 hour at 37° C. Incubations were terminated by removing the incubation medium and adding 500 μL of ice cold 5% (w/v) trichloroacetic acid and allowing the wells to stand for 15 min.
Measurement of [^3H]inositol phosphates. BioRad Poly-Prep Econo-Columns were packed with 0.3 mL of AG 1 X-8 100-200 formate form resin. Resin was mixed 1:1 with water and 0.6 mL added to each column. Columns were then washed with 10 mL water. Scintillation vials (20 mL) were placed under each column. For each well, the contents were transferred to a minicolumn, after which the well was washed with 0.5 mL distilled water, which was also added to the minicolumn. The columns were then washed twice with 5 mL of 5 mM myo-inositol to elute free inositol. Aliquots (1 mL) were transferred to 20 mL scintillation vials and 10 mL of Beckman Ready Protein Plus added. After the myo-inositol wash was complete, empty scintillation vials were placed under the columns, and [^3H]inositol phosphates were eluted with three additions of 1 mL 0.5 M ammonium formate containing 0.1 N formic acid. Elution conditions were optimized to recover inositol mono-, bis-, and trisphosphates, without eluting the more metabolically inert tetrakis-, pentakis-, and hexakis-phosphates. To each sample was added 10 mL of a high salt capacity scintillation fluid such as Tru-Count High Salt Capacity or Packard Hionic-Fluor. Inositol lipids were measured by adding 1 mL of 2% sodium dodecyl sulfate (SDS) to each well, allowing the wells to stand for at least 30 min., and transferring the solution to 20 mL scintillation vials, to which 10 mL Beckman Ready Protein Plus scintillation fluid was then added. Samples were counted in a Beckman LS 3801 liquid scintillation counter for 10 min. Total inositol incorporation for each well was calculated as the sum of free inositol, inositol phosphates, and inositol lipids.
Data analysis: concentration-inhibition experiments. Concentration-response curves for AVP and concentration-inhibition curves for test agents versus 10 nM AVP were analyzed by nonlinear least-squares curve-fitting to a 4-parameter logistic function. Parameters for basal and maximal inositol phosphates, EC50 or IC50, and Hill coefficient were varied to achieve the best fit. The curve-fitting was weighted under the assumption that the standard deviation was proportional to dpm of radioactivity. Full concentration-response curves for AVP were run in each experiment, and IC50 values were converted to Ki values by application of the Cheng-Prusoff equation, based on the EC50 for AVP in the same experiment. Inositol phosphates were expressed as dpm per 10^6 dpm of total inositol incorporation.

[1] = system: AVP-induced rise in blood pressure; assay: Blood pressure pharmacology rats; format: in vivo
Source text: Blood pressure pharmacology rats. […] Prior to menses, blood vessels in the uterine wall become engorged with blood. Vasopressin, acting through V1a receptors, causes constriction of both uterine and vascular smooth muscle contributing to the discomfort and pain of primary dysmenorrhea. Vasopressin is one of the endogenous factors that maintains vascular tone. Blocking the V1a receptors localized to smooth muscle may ameliorate the symptoms of primary dysmenorrhea. Elevated concentrations of vasopressin, acting through V1a receptors causes constriction of both uterine and vascular smooth muscle contributing to the discomfort and pain of primary dysmenorrhea. There are no animal models for evaluating receptor antagonists on dysmenorrhea. […]
Male rats were divided into five groups, and each group was tested with placebo, or one of four doses of one or more of the compounds described herein, such as with Example 225 at 0.16, 0.4, 1.0, and 2.5 mg/kg. Rats were treated orally with the compound and effects on blood pressure were measured 90-150 min later as follows. Under isoflurane anesthesia blood pressure was recorded through a cannula in the femoral artery. To increase systemic blood pressure AVP was administered (25 ng/kg) through a cannula in the femoral vein; the change in mean blood pressure was recorded two minutes following injection of AVP.

[2] = system: panel of 63 other receptors; assay: Comparative binding to other receptors showing selectivity (NOVASCREEN); conditions: 100 nM
Source text: Comparative binding to other receptors showing selectivity.

V1a, sequence (P37288 whole entry): as above

IC50 (V1a; hV1a cell line (CHO), 1 nM 3H-AVP, Table 17, read-out: V1a Binding Affinity (IC50 (nM))): 1.08 nM | binding curve against [3H]-AVP (V1a; hV1a cell line, 10 fold dilutions of test compound): dose-dependent competitive binding curve | Ki (vasopressin V1a receptor; from IC50 by Cheng-Prusoff equation, read-out: Ki, suppression of the action of AVP): 0.05 nM | IC50 (vasopressin V1a receptor; versus 10 nM AVP, inositol phosphates, read-out: IC50, suppression of the action of AVP): 2.68 nM
Structure (SMILES): CN(Cc1cccc(C(F)(F)F)c1)C(=O)[C@@H](CC(=O)N1CCC(N2CCCCC2)CC1)N1C(=O)[C@@H](N2C(=O)OC[C@@H]2c2ccccc2)[C@H]1/C=C/c1ccccc1 [Example 225, 2(R)-[[4-(Piperidinyl)piperidinyl]carbonylmethyl]-2-[3(S)-(4(S)-phenyloxazolidin-2-on-3-yl)-4(R)-(2-styryl)azetidin-2-on-1-yl]acetic acid N-methyl-N-(3-trifluoromethylbenzyl)amide]
suppression of the action of AVP (vasopressin V1a receptor; inositol phosphates): dose-dependent suppression of the action of AVP | inhibition of the AVP-induced rise in blood pressure ([1]; male rats, oral 0.16, 0.4, 1.0, 2.5 mg/kg, 90-150 min before AVP 25 ng/kg): dose-dependent inhibition of the AVP-induced rise in blood pressure | reduction in blood pressure as compared to vehicle and the two lower doses ([1]; rats, oral 1 and 2.5 mg/kg): significant (p<0.01) reduction in blood pressure | selective binding against panel of 63 other receptors [2]: bound only to the V1a vasopressin receptor
